Reference: patent US6395740B1, “Calcitonin mimetics” (ZymoGenetics, Inc., priority 1997, dated 2002)

Assays:
[1] = system: PTH-induced bone resorption in mouse calvaria; test: Calvarial assay to determine calcitonin escape; assay type: cell-based; details: for visual observation of the calvaria (resorption): final time point (98 hours)
Protocol: Calvaria from 4-day old neonatal CD-1 mice (pregnant mice received from Charles River Laboratories) were trimmed with fine-tipped scissors to leave the parietal regions, including the sagittal suture. These trimmed bones were placed singly per well into 6-well culture cluster plates (Costar) with 1 mL/well of growth medium, Basel Medium (Eagle's with Earle's salts (GIBCO BRL, Gaithersburg, Md.)) containing 4.5 g/L glucose, 0.29 mg/mL L-glutamine, 1 mM sodium pyruvate, 15% heat-inactivated horse serum, antibiotics (penicillin-G 50 μg/mL, streptomycin 50 μg/mL, and neomycin 100 μg/mL) and containing 5 nM parathyroid hormone (PTH) 1-34 (Sigma), and rocked gently (RedRocker™) at 37° C. in a 5% CO2 humidified incubator for 17.5 hours preincubation. The concentration of PTH was chosen to insure maximum resorption. Calvaria designated as controls were pre-incubated in media without PTH.
Following preincubation, medium was removed and replaced with 1 mL/well of growth medium, as above, containing 20 or 30 μg/mL of the calcitonin mimetic 850-0231 in DMSO (final assay concentration of DMSO less than or equal to 1%), and compared with human calcitonin (hCT) tested at 0.5, 1.0, 5.0, […] All control wells contained a final assay concentration of DMSO equal to that present in the calcitonin mimetic treated wells.
Five bones were included in each sample group. Bones were incubated for a total of 98 hours. Time points were taken at 4, 8, 11, 24, 50.5, 72.5 and 98 hours. At each time point the media containing PTH was removed and fresh dilutions of compound in media were added to the calvaria. After the media was removed, total calcium measurements were made using a Nova 7/7+7 Electrolyte Analyzed (Nova Biomedical) according to the manufacturer's specifications. Induction of bone resorption by PTH is seen as an increase in the concentration of calcium in the growth medium due to degradation of the bone matrix.
A second calvaria bone resorption/escape assay was performed as described above with time points at 4, 8, 12, 16, 24, 49 and 73 hours. […] Histology was done on the PTH-treated and the 30 μg/mL calcitonin mimetic-treated calvaria.
A third calvaria bone resorption/escape assay was performed as described above with the following modifications. The calcitonin mimetic was tested at 5, 10 and 20 μg/mL. PTH was used at 10 nM to insure maximal resorption, hCT was tested at 2 nM and 8 nM and sCT was not included. Calvaria were pretreated with PTH for 19.75 hours. BrdU (bromodeoxyuridine, final concentration 10 μM) was added to the growth media for the final 17.5 hours, to identify proliferating cells. The lack of toxicity of 850-0231 will be verified by quartitating the number of proliferating BudU cells in histological sections of the calvaria. Time points were taken at 4, 8, 11, 24.5, 48 and 77 hours. A Novo CRT 10+ electrolyte analyzer (Nova Biomedical) was used to analyze the time point samples.
At the final time point, visual observations were made and photos taken to note the extent of resorption, and migration from the calvarial cells as a measure of toxicity. Again, human calcitonin lost its inhibitory effect between hours 11 and 24 (Table 5). The calvaria treated with the mimetic at 5 and 10 μg/mL also lost inhibitory effect between 11 and 24 hours.

[2] = system: osteoclasts in PTH-treated mouse calvariae; test: Calvaria histology: osteoclast number and size; assay type: cell-based; details: PTH 1-34 treated mouse calvariae
From the text: To confirm the findings in the calvarial bone resorption assay employing calcium release from culture mouse calvariae, selected bones were fixed in 10% neutral buffered formalin and demineralized in 5% formic acid with 5% formalin. The bones were dehydrated through an ascending series of ethanol concentrations, infiltrated in glycol methacrylate, and embedded using a JB-4 embedding kit (PolySciences, warrington, Pa.) (Liu et al., J. Bone Mineral Res. 5:973-82 (1990)). Cross sections of calvariae cut at 5 μm were obtained and stained for tartrate-resistant acid phosphatase (TRAP) activity and counterstained with merhyl green and thionin for cell morphology (Laiu et al., supra). Osteociasts were identified by TRAP stain, multinucleation, large cell size, and irregular cell shape. The number of osteoclasts were counted from endocranial and ectocranial bone surfaces and expressed as number/mm perimeter. The size of all the osteoclasts counted was also measured using a Bone Morphometry program (Liu et al., supra; Bain, et al., J. Bone Miner. Res. 8:435-42 (1993)). […]
Calcitonin mimetic compounds were evaluated in a similar fashion for their ability to suppress PTH-induced increases in osteoclast number and size. Cell toxicity (or death) was also evaluated by the appearance of pyknotic nuclei in a small number of bone cells. […]

[3] = Induction of hypocalcemia in rats; assay type: in vivo; details: weanling male rats, tail vein, 0.5, 2.5, 5, 50 and 100 ng/rat, one hour
Protocol: This assay is based on the in vivo acute effect of calcitonin on osteoclasts, which causes rapid retraction of osteoclass from bone surface (typically within 30 minutes) and which results in decreased bone resorption. See Mills, et al., in Endocrinology 1971—Proceedings of the Third International Symposium, Taylor (ed), Heinemann Medical, London, pp. 79-88 (1972) and Singer, et al., Clin. Endocrinol. 5(Supp):333s-340s (1976); the disclosures of which are incorporated herein by reference. The assay method was modified from the method described by Sturtridge and Kumar, Lancet 545:725-6, 1968, the disclosure of which is incorporated herein by reference.
For the assay of hypocalcemic activity, weanling male Holtzman Sprague-Dawley rats (22 days old) are infused with vehicle (PBS with 1 mM HCl and 0.1% BSA), calcitonin or calcitonin mimetics through the tail vein. One hour later, blood samples are collected by orbital sinus puncture to determine serum levels of calcium. A decrease in serum calcium indicates a hypocalcemic response. The hypocalcemic response is dose-dependent as determined using salmon calcitonin (0.5, 2.5, 5, 50 and 100 ng/rat) in this model.

[4] = TPTX rats, co-administration with PTH, two days; cited from earlier work

human calcitonin
time after which inhibitory effect on resorption was lost (escape) ([1]; first assay, PTH 5 nM): approximately 24 hours | Cumulative Total Calcium ([1]; first assay, PTH 5 nM, hCT 10 nM, 4 hours): 0.02 mg % | Cumulative Total Calcium ([1]; first assay, PTH 5 nM, hCT 10 nM, 8 hours): 0.02 mg % | Cumulative Total Calcium ([1]; first assay, PTH 5 nM, hCT 10 nM, 11 hours): −0.02 mg % | Cumulative Total Calcium ([1]; first assay, PTH 5 nM, hCT 10 nM, 24 hours): 0.98 mg % | Cumulative Total Calcium ([1]; first assay, PTH 5 nM, hCT 10 nM, 50.5 hours): 4.96 mg % | Cumulative Total Calcium ([1]; first assay, PTH 5 nM, hCT 10 nM, 72.5 hours): 8.24 mg % | Cumulative Total Calcium ([1]; first assay, PTH 5 nM, hCT 10 nM, 98 hours): 12.26 mg % | visual observation of the calvaria (resorption) ([1]; first assay): less resorption | Cumulative Total Calcium ([1]; second assay, PTH 5 nM, hCT 10 nM, 4 hours): 0.10 mg % | Cumulative Total Calcium ([1]; second assay, PTH 5 nM, hCT 10 nM, 8 hours): −0.04 mg % | Cumulative Total Calcium ([1]; second assay, PTH 5 nM, hCT 10 nM, 12 hours): −0.06 mg % | Cumulative Total Calcium ([1]; second assay, PTH 5 nM, hCT 10 nM, 16 hours): 0.12 mg % | Cumulative Total Calcium ([1]; second assay, PTH 5 nM, hCT 10 nM, 24 hours): 0.92 mg % | Cumulative Total Calcium ([1]; second assay, PTH 5 nM, hCT 10 nM, 49 hours): 5.70 mg % | Cumulative Total Calcium ([1]; second assay, PTH 5 nM, hCT 10 nM, 73 hours): 10.60 mg % | Cumulative Total Calcium ([1]; third assay, PTH 10 nM, hCT 2 nM, 4 hours): 0.01 mg % | Cumulative Total Calcium ([1]; third assay, PTH 10 nM, hCT 2 nM, 8 hours): 0.10 mg % | Cumulative Total Calcium ([1]; third assay, PTH 10 nM, hCT 2 nM, 11 hours): 0.10 mg % | Cumulative Total Calcium ([1]; third assay, PTH 10 nM, hCT 2 nM, 24.5 hours): 1.22 mg % | Cumulative Total Calcium ([1]; third assay, PTH 10 nM, hCT 2 nM, 48 hours): 4.88 mg % | Cumulative Total Calcium ([1]; third assay, PTH 10 nM, hCT 2 nM, 77 hours): 9.55 mg % | Cumulative Total Calcium ([1]; third assay, PTH 10 nM, hCT 8 nM, 4 hours): 0.08 mg % | Cumulative Total Calcium ([1]; third assay, PTH 10 nM, hCT 8 nM, 8 hours): 0.24 mg % | Cumulative Total Calcium ([1]; third assay, PTH 10 nM, hCT 8 nM, 11 hours): 0.27 mg % | Cumulative Total Calcium ([1]; third assay, PTH 10 nM, hCT 8 nM, 24.5 hours): 1.45 mg % | Cumulative Total Calcium ([1]; third assay, PTH 10 nM, hCT 8 nM, 48 hours): 4.60 mg % | Cumulative Total Calcium ([1]; third assay, PTH 10 nM, hCT 8 nM, 77 hours): 9.74 mg % | PTH-induced increase in number and size of osteoclasts [2]: suppressed

salmon calcitonin
time after which inhibitory effect on resorption was lost (escape) ([1]; first assay, PTH 5 nM): approximately 24 hours | Cumulative Total Calcium ([1]; first assay, PTH 5 nM, sCT 0.2 nM, 4 hours): 0.10 mg % | Cumulative Total Calcium ([1]; first assay, PTH 5 nM, sCT 0.2 nM, 8 hours): 0.18 mg % | Cumulative Total Calcium ([1]; first assay, PTH 5 nM, sCT 0.2 nM, 11 hours): 0.34 mg % | Cumulative Total Calcium ([1]; first assay, PTH 5 nM, sCT 0.2 nM, 24 hours): 1.76 mg % | Cumulative Total Calcium ([1]; first assay, PTH 5 nM, sCT 0.2 nM, 50.5 hours): 6.12 mg % | Cumulative Total Calcium ([1]; first assay, PTH 5 nM, sCT 0.2 nM, 72.5 hours): 9.88 mg % | Cumulative Total Calcium ([1]; first assay, PTH 5 nM, sCT 0.2 nM, 98 hours): 13.22 mg % | visual observation of the calvaria (resorption) ([1]; first assay): less resorption | Cumulative Total Calcium ([1]; second assay, PTH 5 nM, sCT 1 nM, 4 hours): −0.02 mg % | Cumulative Total Calcium ([1]; second assay, PTH 5 nM, sCT 1 nM, 8 hours): −0.16 mg % | Cumulative Total Calcium ([1]; second assay, PTH 5 nM, sCT 1 nM, 12 hours): −0.20 mg % | Cumulative Total Calcium ([1]; second assay, PTH 5 nM, sCT 1 nM, 16 hours): 0.08 mg % | Cumulative Total Calcium ([1]; second assay, PTH 5 nM, sCT 1 nM, 24 hours): 0.92 mg % | Cumulative Total Calcium ([1]; second assay, PTH 5 nM, sCT 1 nM, 49 hours): 6.02 mg % | Cumulative Total Calcium ([1]; second assay, PTH 5 nM, sCT 1 nM, 73 hours): 11.56 mg % | hypocalcemic response (decrease in serum calcium) [3]: dose-dependent | PTH-induced serum, bone and kidney changes [4]: attenuated
